Assay results published in ChEMBL document CHEMBL1130041, “Halogenated 4-(phenoxymethyl)piperidines as potential radiolabeled probes for sigma-1 receptors: in vivo evaluation of [123I]-1-(iodopropen-2-yl)-4-[(4-cyanophenoxy)methyl]pip eri dine” (J Med Chem, 1997).

Key:
D(2) dopamine receptor = D(2) dopamine receptor (Homo sapiens, UniProt P14416); assay: In vitro binding affinity for Dopamine receptor D2
[1] = In Vitro binding affinity for 5-hydroxytryptamine 2 receptor
[2] = (§1) Ki ratio measured as Ki of sigma-2 receptor to that of sigma-1 receptor.
Sigma 2 receptor [3] = assay: In vitro for binding affinity at sigma-2 receptor by measuring its ability to displace [3H]DTG from guinea pig membranes; parameters: species or system Cavia porcellus
[4] = Partition coefficient (logP); type: physicochemical; settings: octanol/water
Sigma 2 receptor [5] = assay: Receptor binding affinity against Sigma-2 receptor from guinea pig membranes; parameters: species or system Cavia porcellus
[6] = biological target: T1, Sigma non-opioid intracellular receptor 1 (Homo sapiens, UniProt Q99720); assay: as §1; settings: Cavia porcellus
T1 sequence (Q99720 whole entry): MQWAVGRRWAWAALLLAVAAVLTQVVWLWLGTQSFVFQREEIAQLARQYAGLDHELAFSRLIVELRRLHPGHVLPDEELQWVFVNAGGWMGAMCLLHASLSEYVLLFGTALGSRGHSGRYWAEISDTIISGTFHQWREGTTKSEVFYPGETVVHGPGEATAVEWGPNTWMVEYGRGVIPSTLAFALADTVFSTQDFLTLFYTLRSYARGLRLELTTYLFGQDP

Rattus norvegicus [7] = organism: Rattus norvegicus; assay: Blockade of uptake of the radiotracer in posterior cortex of rat; type: functional
Rattus norvegicus [8] = organism: Rattus norvegicus; assay: Blockade of uptake of the radiotracer in posterior cortex; type: functional
[9] = biological target: T1, Sigma non-opioid intracellular receptor 1; assay: Receptor binding affinity against Sigma receptor
[10] = biological target: T1, Sigma non-opioid intracellular receptor 1; assay: Ki ratio measured as Ki of sigma-2 receptor to that of sigma-1 receptor; settings: Cavia porcellus

Sequence of D(2) dopamine receptor (P14416 whole entry): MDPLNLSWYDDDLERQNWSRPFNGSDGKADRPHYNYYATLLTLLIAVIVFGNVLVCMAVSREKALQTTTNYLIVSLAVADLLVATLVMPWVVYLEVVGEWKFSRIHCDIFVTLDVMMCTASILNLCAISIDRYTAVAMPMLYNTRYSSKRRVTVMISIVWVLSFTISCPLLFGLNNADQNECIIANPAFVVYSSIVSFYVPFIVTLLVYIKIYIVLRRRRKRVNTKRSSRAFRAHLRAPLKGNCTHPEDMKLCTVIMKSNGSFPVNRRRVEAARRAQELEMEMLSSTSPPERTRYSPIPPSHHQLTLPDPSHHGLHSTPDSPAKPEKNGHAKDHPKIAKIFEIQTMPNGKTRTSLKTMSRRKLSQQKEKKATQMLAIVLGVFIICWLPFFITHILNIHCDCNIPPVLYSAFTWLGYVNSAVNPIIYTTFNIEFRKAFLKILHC

Row | SMILES | Ki (D(2) dopamine receptor) [nM] | Ki [1] [nM] | Ratio [2] | Ki (Sigma 2 receptor [3]) [nM] | logP [4] | other results
1 | Brc1ccc(OCC2CCN(CC3CC3)CC2)cc1 | > 10000 | > 10000 | 22.7 | 13.6 | 6.22 | 
2 | O=[N+]([O-])c1ccc(OCC2CCN(Cc3ccc(F)cc3)CC2)cc1 | > 10000 | > 10000 |  |  | 3.62 | Ki (Sigma 2 receptor [5]): 3.9 nM; Ratio [6]: 3.25
3 | N#Cc1ccc(OCC2CCN(CCF)CC2)cc1 | > 10000 | > 10000 | 14.9 | 361 | 2.42 | 
4 | O=C(CCCN1CCC(O)(c2ccc(Cl)cc2)CC1)c1ccc(F)cc1 [HALOPERIDOL] |  |  |  |  |  | Blockade (Rattus norvegicus [7]): 91%
5 | N#Cc1cccc(CN2CCC(COc3ccc(I)cc3)CC2)c1 |  | > 1000 | 24 | 69.5 | 4.19 | 
6 | CC(C)=CCN1CC[C@]2(C)c3cc(O)ccc3C[C@H]1[C@H]2C (single isomer, unassigned) [(+)-PENTAZOCINE] |  |  |  |  |  | Blockade (Rattus norvegicus [8]): 84%
7 | O=[N+]([O-])c1ccc(OCC2CCN(CC3CC3)CC2)cc1 |  | > 200 |  |  |  | Ki [9]: 13 nM
8 | FCCCN1CCC(COc2c(F)c(F)c(F)c(F)c2F)CC1 |  | > 10000 | 2.05 | 5.3 | 4.11 | 
9 | Fc1ccc(CN2CCC(COc3c(F)c(F)c(F)c(F)c3F)CC2)cc1 |  | > 10000 | 1.17 | 4.3 |  | 
10 | OCCN1CCC(COc2ccc(I)cc2)CC1 | > 10000 | > 10000 | 60.4 | 139 | 3.8 | 
11 | N#Cc1ccc(OCC2CCN(Cc3ccccc3I)CC2)cc1 |  | > 1000 | 10.1 | 93.6 | 4.3 | 
12 | O=C(CC1CCN(CC2CC2)CC1)c1ccc(F)cc1 |  | 15 |  |  |  | 
13 | N#Cc1ccc(OCC2CCN(CCCF)CC2)cc1 | > 10000 | > 10000 |  | 144 | 2.93 | 
14 | N#Cc1ccccc1CN1CCC(COc2ccc(I)cc2)CC1 |  | > 1000 | 13.5 | 142 | 4.32 | 
15 | N#Cc1ccc(OCC2CCN(Cc3ccccc3Br)CC2)cc1 |  | > 1000 | 15.4 | 31.1 | 4.09 | 
16 | Fc1cccc(CN2CCC(COc3c(F)c(F)c(F)c(F)c3F)CC2)c1 |  | > 10000 | 7.48 | 25 | 4.72 | 
17 | N#Cc1ccc(OCC2CCN(Cc3ccc(F)cc3)CC2)cc1 | > 10000 | > 10000 |  | 5.2 | 3.22 | Ratio [10]: 6.84
18 | Ic1ccc(OCC2CCN(CC3CC3)CC2)cc1 | > 10000 | > 10000 | 23.4 | 11.7 | 6.67 | 
19 | FCCCN1CCC(COc2ccc(Br)cc2)CC1 | > 10000 | > 10000 | 34.5 | 13.1 | 5.88 | 
20 | Fc1c(F)c(F)c(CN2CCC(COc3c(F)c(F)c(F)c(F)c3F)CC2)c(F)c1F |  | > 10000 |  | > 1000 |  | 
21 | FCCN1CCC(COc2ccc(I)cc2)CC1 | > 10000 | > 10000 | 121 | 102 | 4.02 | 
22 | N#Cc1ccc(OCC2CCN(CC3CC3)CC2)cc1 |  | > 200 |  |  |  | Ki [9]: 10 nM
23 | Brc1cccc(OCC2CCN(CC3CC3)CC2)c1 | > 10000 | > 10000 | 11.3 | 9.9 | 6.36 | 
